We go through three compounds from patent publication US6479232B1, “Human xenografts for microbicide testing and anatomical modeling” (The Pennsylvania State University, priority 1999, dated 2002).

Details of data set [1]: species or system mice. Particulars: mouse, in vivo. The source says:
While it is not intended the present invention be limited to any specific formulation or dimension of silastic tubing, in one embodiment said silastic tubing was fabricated according to the following method. Tubing (0.078 in. inner diameter by 0.125 in. outer diameter; Dow Corning, Midland, Mich.) was filled with 17β-estradiol (1,3,5[10]-Estratriene-3, 17β) (Sigma Chemical Company, St. Louis, Mo.) mixed 1:3 (w/w) with silastic 382 medical grade elastomer (Dow Coming, St. Louis, Mo.). The mixture was allowed to dry and the tubing cut, in one embodiment, to a size (approximately 2×2×1 mm) which yielded a measurable circulating estradiol concentration of about 150-200 pg/ml in mice. It may be noted that this concentration of estradiol approximates the concentration of estrogen in women during the late follicular phase of the menstrual cycle.

The test system of data set [2] is human vaginal xenograft epithelium. As to the kind of experiment: Survival and morphology of treated epithelium in the human vaginal xenograft. The format is in vivo. The following applies: grafts receiving virus treated with 0.05% SDS. As for the experimental part: In this example, human vaginal xenografts engrafted for ten days in the subcutaneous space of an immunocompromised mouse were infected with 10 u l of HPV-11, or HPV-11 that had been treated with 0.05% SDS at 37° C. for 10 minutes and then placed in the lumen of the grafts. At varying intervals, the infected human xenografts (or portions thereof) were surgically removed and examined.

Data set [3] relates to HPV-11. In words: HPV-11 infection of human vaginal xenografts engrafted in immunocompromised mouse, virus pre-treated with candidate microbicide. The following applies: HPV-11 treated with 0.05% SDS at 37° C. for 10 minutes, then placed in lumen of grafts engrafted ten days in immunocompromised mouse. The format is in vivo. The source says: In this example, human vaginal xenografts were infected with HPV by inoculating the lumen of said vaginal xenografts, engrafted into a non-human host, with HPV-11 stock virus suspensions prepared according to the methods presented in Example 1. […] Furthermore, it is not necessary to traumatize the walls of said grafts during inoculation to precipitate infection.
In experimental samples, candidate microbicides are mixed with HPV in vitro prior to administration of said HPV/candidate microbicide mixture to the lumen of a vaginal xenograft engrafted into a non-human host. In an alternative experimental embodiment, candidate microbicides were pre-administered to the vaginal lumen, before delivery of a pathogenic agent, into the same lumen.
Xenografts are harvested at 70-90 days and are screened for signs of virus replication. Said screening protocols include quantification of morphologic transformations, viral DNA and RNA synthesis, and protein synthesis. In addition, cell-free extracts of infected xenografts are tested by bioassay for the presence of infectious virus using standard procedures for infection and transformation of vaginal epithelium. […]

Data set [4] concerns HPVs. Particulars: cited from earlier work.
For data set [5] the following is noted: some people; cited from earlier work.
Data set [6] concerns HIV-1. Particulars: in vitro; cited from earlier work.
Data set [7] deals with HSV-2. Particulars: in vitro; cited from earlier work.
For data set [8], the system named is HIV. Particulars: cited from earlier work.

Compound `C[C@]12CC[C@@H]3c4ccc(O)cc4CC[C@H]3[C@@H]1CC[C@@H]2O` [17β-estradiol, 17β-estradiol (1,3,5[10]-Estratriene-3, 17β)] registered a circulating estradiol concentration in data set [1] of 150 to 200 pg/mL.

For `CCCCCCCCCCCCOS(=O)(=O)[O-].[Na+]` [SDS, Sodium Dodecyl Sulfate], in data set [2], the “killing of treated epithelium in the vaginal xenograft” value is on record as “did not kill the treated epithelium” and the “morphology of tissues receiving treated virus” value is recorded as “stratified squamous epithelium with a morphology analogous to normal in situ vagina”. Also, the “prevention of virus infection (papillomatous transformation, virus DNA, virus protein)” value in data set [3] was “effectively prevented virus infection”.

As for Nonoxynol-9 [N-9], the “inactivation of / effectiveness against HPVs” value in data set [4] is given as “does not inactivate HPVs”. The irritation and ulceration result in data set [5] is “may cause irritation and ulceration in some people”. Further, in data set [6], the “inactivation of HIV-1” value was “inactivates”. In addition, the “inactivation of HSV-2” value in data set [7] was “inactivates”. In data set [8], the “prevention of transmission of HIV to women” value is recorded as “has not been proven to prevent transmission”.
